{"source": "patent US20220064167A1", "about": "“IMIDAZO-PYRAZOLE CARBOXAMIDE DERIVATIVES AS ANTICANCER AGENTS AND THE SYNTHESIS THEREOF” (AVIDIN KFT., priority 2018, published 2022)", "assay_in_all_cases": "viability assay (Table 3)", "format_in_all_cases": "cell-based", "key": {"[1]": {"test_system": "HT29 (human colorectal adenocarcinoma)", "conditions": "HT-29, 4000 cells/well, 10 μM-0.2 nM", "experimental": "(§1) For viability assays cells were seeded in 96 well plates (MCF7 and 4T1: 6000, HL60: 120.000 cells/well) and incubated overnight. Compounds were dissolved in dimethyl sulfoxide (DMSO). Cells were treated with an increasing concentration of compounds having the general formula (I.) (156 nM-100 μM). Cell viability was determined after 72h incubation. Resazurin reagent (Sigma-Aldrich) was dissolved in PBS (pH 7.4) at 0.15 mg/ml concentration, sterile filtered (0.22 μm, Merck Millipore) and aliquoted at −20° C. Resazurin reagent (Sigma-Aldrich) was added at a final concentration of 25 μg/ml. After 2 hours incubation at 37° C. 5% CO2 fluorescence (530 nm excitation/580 nm emission) was recorded on a multimode microplate reader (Cytofluor4000, PerSeptive Biosytems). Viability was calculated with relation to untreated control cells and blank wells containing media without cells. IC50 values (50% inhibiting concentration) were calculated by GraphPad Prism® 5 (La Jolla, Calif., USA).\n(§2) Cancer cell lines were purchased from the American Type Culture Collection (ATCC, Manassas, Va., USA). HT29 (human colorectal adenocarcinoma), HL-60 (acute promyelocytic leukemia), THP-1 (acute monocytic leukemia), MOLT-4 (acute T-lymphoblastic leukemia), MV-4-11 (biphenotypic B myelomonocytic leukemia) and K-562 (erythroleukemia) cells were maintained in Roswell Park Memorial Institute 1640 medium (RPMI-1640) with 10% FCS. Media were supplemented with 2 mM GlutaMAX, and 100 U/mL penicillin, 100 μg/mL streptomycin (Life Technologies, Carlsbad, Calif., USA). Cell cultures were maintained at 37° C. in a humidified incubator in an atmosphere of 5% CO2 (Sanyo, Japan).\n(§3) Viability assays were performed as described in Example 102 with minor modification for cell density and tested concentration range. Applied cell densities: in case of human primary fibroblast 6000, for HT29 4000, for HL-60, MOLT-4, MV-4-11, THP-1, K-562 20000 cells/well. Applied compound concentration range: 10 μM-0.2 nM."}, "[2]": {"test_system": "MOLT-4 (acute T-lymphoblastic leukemia)", "conditions": "Homo sapiens, 20000 cells/well, 10 μM-0.2 nM", "experimental": "as §1, §2, §3"}, "[3]": {"test_system": "MV-4-11 (biphenotypic B myelomonocytic leukemia)", "conditions": "Homo sapiens, MV4-11; 20000 cells/well, 10 μM-0.2 nM", "experimental": "as §1, §2, §3"}, "[4]": {"test_system": "HL-60 (acute promyelocytic leukemia)", "conditions": "Homo sapiens, 20000 cells/well, 10 μM-0.2 nM", "experimental": "as §1, §2, §3"}, "[5]": {"test_system": "THP-1 (acute monocytic leukemia)", "conditions": "Homo sapiens, 20000 cells/well, 10 μM-0.2 nM", "experimental": "as §1, §2, §3"}, "K-562 (erythroleukemia)": {"test_system": "K-562 (erythroleukemia)", "conditions": "Homo sapiens, K562; 20000 cells/well, 10 μM-0.2 nM", "experimental": "as §1, §2, §3"}, "human primary fibroblast": {"test_system": "human primary fibroblast", "conditions": "6000 cells/well, 10 μM-0.2 nM", "experimental": "as §1\nHuman primary fibroblasts were obtained from the skin by enzymatic digestion according to a standard protocol. Fibroblasts were grown in low glucose DMEM/F12 medium containing 15% FCS, 1% antibiotic/antimycotic (PAA, Pasching, Austria) and 1% L-glutamine solution (PAA). Fibroblasts were cultured at 37° C. and 5% CO2 in humidified conditions. […]"}}}
{"smiles": "CC(C)(C)Nc1c(C(C)(C)C)[nH]c2c(C(=O)Nc3ccc(O)cc3)cnn12", "note": "[Example 90, 2-(Tert-butyl)-3-(tert-butylamino)-N-(4-hydroxyphenyl)-1H-imidazo[1,2-b]pyrazole-7-carboxamide]", "values": [{"measurement": "IC50", "setting": "[1]", "value": 9.97, "unit": "nM"}, {"measurement": "IC50", "setting": "[2]", "value": 27.2, "unit": "nM"}, {"measurement": "IC50", "setting": "[3]", "value": 32.2, "unit": "nM"}, {"measurement": "IC50", "setting": "[4]", "value": 16.5, "unit": "nM"}, {"measurement": "IC50", "setting": "[5]", "value": 25.9, "unit": "nM"}, {"measurement": "IC50", "setting": "K-562 (erythroleukemia)", "value": 54.3, "unit": "nM"}, {"measurement": "IC50", "setting": "human primary fibroblast", "value": "> 3000", "unit": "nM"}]}
